In PubChem BioAssay (NCI):
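Values below derive from 48-hour exposures of cells grown in 96-well plates, with endpoints linearly interpolated between the two concentrations bracketing the appropriate inhibition level. Abbreviation: GI50, concentration required for 50% inhibition of growth. TGI is the concentration that stops growth completely.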

How the values were obtained:
Experiment in all cases: growth of human tumour cells (NCI), 48 h
SNB-75 CNS = test system: SNB-75 CNS
HT29 colon = test system: HT29 colon
SK-MEL-5 melanoma = test system: SK-MEL-5 melanoma
SF-268 CNS = test system: SF-268 CNS
HCT-116 colon = test system: HCT-116 colon
IGROV1 ovarian = test system: IGROV1 ovarian
HL-60(TB) leukemia = test system: HL-60(TB) leukemia
SNB-19 CNS = test system: SNB-19 CNS
OVCAR-4 ovarian = test system: OVCAR-4 ovarian
COLO 205 colon = test system: COLO 205 colon

SMILES | TGI (SNB-75 CNS) [µM] | TGI (HT29 colon) [µM] | TGI (SK-MEL-5 melanoma) [µM] | TGI (SF-268 CNS) [µM] | TGI (HCT-116 colon) [µM] | TGI (IGROV1 ovarian) [µM] | TGI (HL-60(TB) leukemia) [µM] | TGI (SNB-19 CNS) [µM] | TGI (OVCAR-4 ovarian) [µM] | TGI (COLO 205 colon) [µM] | GI50 (SNB-75 CNS) [µM] | GI50 (HT29 colon) [µM] | GI50 (SK-MEL-5 melanoma) [µM] | GI50 (SF-268 CNS) [µM] | GI50 (HCT-116 colon) [µM] | GI50 (IGROV1 ovarian) [µM] | GI50 (HL-60(TB) leukemia) [µM] | GI50 (SNB-19 CNS) [µM] | GI50 (OVCAR-4 ovarian) [µM] | GI50 (COLO 205 colon) [µM]
CSC(CC(=O)O)C(=O)O (stereo not given) | > 100 | > 100 | > 100 | > 100 | > 100 | > 100 | > 100 | > 100 | > 100 | > 100 |  |  |  |  |  |  |  |  |  | 
CC1CC2CC(=O)CC3(C1)C2CCCN3CCCO (stereo not given) | > 100 | > 100 | > 100 | > 100 | > 100 | > 100 | > 100 | > 100 | > 100 | > 100 |  |  |  |  |  |  |  |  |  | 
COc1ccc2c(c1)C(=O)c1c-2n(CCCN=[N+]=[N-])c(=O)c2cc(N(C)C)ccc12 | 56.2 | > 100 | > 100 | > 100 | > 100 | > 100 | > 100 | > 100 | > 100 | > 100 | 7.21 | > 100 | 23.8 | 22.3 | 77.3 | > 100 | > 100 | > 100 | > 100 | > 100
C=CCN(/C=C1/C(=O)O[C@H](COC)[C@@]2(C)C1=C(O)C(=O)C1=C2[C@H](OC(C)=O)C[C@]2(C)C(=O)CC[C@@H]12)CC=C | 0.816 | > 10 | > 10 | > 10 | > 10 | 6.81 | > 10 | > 10 | > 10 | > 10 | 0.0364 | 0.422 | 3.16 | 1.71 | 1.17 | 0.135 | 0.286 | 3.45 | 2.72 | 2.17
CC1CC#CCOC(=O)CCCC1=O (stereo not given) | > 100 | > 100 | > 100 | > 100 | > 100 | > 100 | > 100 | > 100 | > 100 | > 100 |  |  |  |  |  |  |  |  |  | 
COc1ccccc1N=C(N)N/N=C/c1c[nH]c2ccccc12 | 25.4 | 14.9 | 8.91 | 29.1 | 19.6 | 28.9 | 33.3 | 28.6 | 31.3 | 3.32 |  |  |  |  |  |  |  |  |  | 
COC[C@@H](N=CN1CCc2cc(OC)c(OC)cc2[C@@H]1C)C(C)(C)C | > 100 | > 100 | > 100 | > 100 | > 100 | > 100 | > 100 | > 100 | > 100 | > 100 |  |  |  |  |  |  |  |  |  | 
CC(=O)Nc1ccc(C(=O)NN2C(=O)C(Cl)C2c2ccc([N+](=O)[O-])cc2)cc1 (stereo not given) | > 100 | > 100 | > 100 | > 100 | > 100 | > 100 | > 100 | > 100 | > 100 | > 100 |  |  |  |  |  |  |  |  |  | 
CC(C)C1(O)C(c2ccccc2)=C(c2ccccc2)C(c2ccccc2)=C1c1ccccc1 | 58.5 | 16 | 22.4 | 27.6 | 13.4 | > 100 | 7.07 | > 100 | > 100 | 21.7 |  |  |  |  |  |  |  |  |  | 
